Laboratory results as given in BigSolDB 2.1.

CC1=CC(=O)[N-]S(=O)(=O)O1.[K+]
Conditions | solubility (mole fraction)
in ethanol, 277.1 K | 0.000123
in ethanol, 282.39 K | 0.000154
in ethanol, 287.47 K | 0.000176
in ethanol, 292.3 K | 0.0002
in ethanol, 297.55 K | 0.000226
in ethanol, 302.65 K | 0.000259
in ethanol, 307.9 K | 0.0003
in ethanol, 312.93 K | 0.000396
in ethanol, 317.87 K | 0.000496
in ethanol, 322.9 K | 0.000634
in methanol, 277.7 K | 0.000156
in methanol, 281.79 K | 0.000173
in methanol, 286.1 K | 0.000189
in methanol, 290.39 K | 0.000205
in methanol, 294.2 K | 0.000222
in methanol, 298.51 K | 0.000238
in methanol, 302.21 K | 0.000256
in methanol, 307.8 K | 0.000288
in methanol, 311.39 K | 0.000313
in methanol, 315.47 K | 0.000341
in methanol, 319.3 K | 0.000371
in methanol, 322.8 K | 0.000401
in water, 277.98 K | 0.000151
in water, 281.23 K | 0.000167
in water, 284.73 K | 0.000186
in water, 288.35 K | 0.000207
in water, 294.9 K | 0.000249
in water, 298.02 K | 0.000271
in water, 301.03 K | 0.000292
in water, 304.01 K | 0.000314
in water, 307.07 K | 0.000338
in water, 310.24 K | 0.000363
in water, 313.53 K | 0.00039
in water, 317.3 K | 0.000419
in water, 322.3 K | 0.000474
